Molecular target: T1, human PTH1 receptor (Homo sapiens, UniProt Q03431)
T1 sequence (Q03431 27-593): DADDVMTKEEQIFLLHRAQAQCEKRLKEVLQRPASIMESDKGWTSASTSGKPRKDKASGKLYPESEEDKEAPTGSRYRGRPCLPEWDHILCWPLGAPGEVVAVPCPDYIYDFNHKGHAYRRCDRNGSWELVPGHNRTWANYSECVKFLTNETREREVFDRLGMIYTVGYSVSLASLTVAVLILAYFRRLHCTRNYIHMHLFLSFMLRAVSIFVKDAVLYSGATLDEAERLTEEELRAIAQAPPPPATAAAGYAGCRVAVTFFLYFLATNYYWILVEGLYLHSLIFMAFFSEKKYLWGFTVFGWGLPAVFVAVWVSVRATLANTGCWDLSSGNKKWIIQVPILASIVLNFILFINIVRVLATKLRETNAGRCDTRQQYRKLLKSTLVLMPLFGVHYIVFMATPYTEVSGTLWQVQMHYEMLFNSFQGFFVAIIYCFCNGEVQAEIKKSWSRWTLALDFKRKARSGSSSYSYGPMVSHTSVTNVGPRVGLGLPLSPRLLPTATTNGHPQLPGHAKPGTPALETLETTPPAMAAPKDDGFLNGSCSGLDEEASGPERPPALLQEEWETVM
Assay: In vitro cAMP signal activity in HKRK-B7 cells (LLC-PK1 cells overexpressing the human PTH1 receptor)
Assay type: cell-based
Conditions: HKRK-B7 cells; compound at 1×10^−3 M; cAMP produced as percentage of that produced by hPTH(1-34) at 100 nM

| SMILES | cAMP production activity (%) |
| --- | --- |
| Cc1nc(C)c(C2=NC3(CCN(S(=O)(=O)CCc4ccc(C(=O)N(C)C)cc4C)CC3)C(=O)N2)s1 [Compound 102, 4-{2-[2-(2,4-dimethyl-thiazol-5-yl)-4-oxo-1,3,8-triaza-spiro[4.5]dec-1-ene-8-sulfonyl]-ethyl}-3,N,N-trimethyl-benzamide] | 23% |
| Cc1cc(C(=O)N(C)C)ccc1CCS(=O)(=O)N1CCC2(CC1)N=C(CC1CCCCC1)NC2=O [Compound 103, 4-[2-(2-cyclohexylmethyl-4-oxo-1,3,8-triaza-spiro[4.5]dec-1-ene-8-sulfonyl)-ethyl]-3,N,N-trimethyl-benzamide] | 80% |
| Cc1cc(C(=O)N(C)C)ccc1CCS(=O)(=O)N1CCC2(CC1)N=C(C1CCC(C(F)(F)F)CC1)NC2=O (centres unmarked) [Compound 104, 3,N,N-trimethyl-4-{2-[4-oxo-2-(4-trifluoromethyl-cyclohexyl)-1,3,8-triaza-spiro[4.5]dec-1-ene-8-sulfonyl]-ethyl}-benzamide] | 79% |
| Cc1cc(C(=O)N(C)C)ccc1CCS(=O)(=O)N1CCC2(CC1)N=C(c1ccccc1OC(F)(F)F)NC2=O [Compound 105, 3,N,N-trimethyl-4-{2-[4-oxo-2-(2-trifluoromethoxy-phenyl)-1,3,8-triaza-spiro[4.5]dec-1-ene-8-sulfonyl]-ethyl}-benzamide] | 78% |
| Cc1cc(C(=O)N(C)C)ccc1CCS(=O)(=O)N1CCC2(CC1)N=C(c1ccc(OC(F)(F)F)cc1)NC2=O [Compound 106, 3,N,N-trimethyl-4-{2-[4-oxo-2-(4-trifluoromethoxy-phenyl)-1,3,8-triaza-spiro[4.5]dec-1-ene-8-sulfonyl]-ethyl}-benzamide] | 94% |
| Cc1cc(C(=O)N(C)C)ccc1CCS(=O)(=O)N1CCC2(CC1)N=C(c1ccc(F)c(C(F)(F)F)c1)NC2=O [Compound 107, 4-{2-[2-(4-fluoro-3-trifluoromethyl-phenyl)-4-oxo-1,3,8-triaza-spiro[4.5]dec-1-ene-8-sulfonyl]-ethyl}-3,N,N-trimethyl-benzamide] | 110% |
| Cc1cc(C(=O)N(C)C)ccc1CCS(=O)(=O)N1CCC2(CC1)N=C(CCC1CCCCC1)NC2=O [Compound 108, 4-{2-[2-(2-cyclohexyl-ethyl)-4-oxo-1,3,8-triaza-spiro[4.5]dec-1-ene-8-sulfonyl]-ethyl}-3,N,N-trimethyl-benzamide] | 62% |
| Cc1cc(C(=O)N(C)C)ccc1CCS(=O)(=O)N1CCC2(CC1)N=C(c1cccc(F)c1)NC2=O [Compound 109, 4-{2-[2-(3-fluoro-phenyl)-4-oxo-1,3,8-triaza-spiro[4.5]dec-1-ene-8-sulfonyl]-ethyl}-3,N,N-trimethyl-benzamide] | 62% |
| Cc1cc(C(=O)N(C)C)ccc1CCS(=O)(=O)N1CCC2(CC1)N=C(c1cccc(S(C)(=O)=O)c1)NC2=O [Compound 110, 4-{2-[2-(3-methanesulfonyl-phenyl)-4-oxo-1,3,8-triaza-spiro[4.5]dec-1-ene-8-sulfonyl]-ethyl}-3,N,N-trimethyl-benzamide] | 25% |
| Cc1cc(C(=O)N(C)C)ccc1CCS(=O)(=O)N1CCC2(CC1)N=C(c1cccc(C(F)(F)F)c1C)NC2=O [Compound 111, 3,N,N-trimethyl-4-{2-[2-(2-methyl-3-trifluoromethyl-phenyl)-4-oxo-1,3,8-triaza-spiro[4.5]dec-1-ene-8-sulfonyl]-ethyl}-benzamide] | 93% |
| Cc1cc(C(=O)N(C)C)ccc1CCS(=O)(=O)N1CCC2(CC1)N=C(c1cc(C(F)(F)F)ccc1C)NC2=O [Compound 112, 3,N,N-trimethyl-4-{2-[2-(2-methyl-5-trifluoromethyl-phenyl)-4-oxo-1,3,8-triaza-spiro[4.5]dec-1-ene-8-sulfonyl]-ethyl}-benzamide] | 77% |
| Cc1cc(C(=O)N(C)C)ccc1CCS(=O)(=O)N1CCC2(CC1)N=C(c1cccc(C)c1C)NC2=O [Compound 113, 4-{2-[2-(2,3-dimethyl-phenyl)-4-oxo-1,3,8-triaza-spiro[4.5]dec-1-ene-8-sulfonyl]-ethyl}-3,N,N-trimethyl-benzamide] | 111% |
| Cc1cc(C(=O)N(C)C)ccc1CCS(=O)(=O)N1CCC2(CC1)N=C(c1cccc(F)c1C)NC2=O [Compound 114, 4-{2-[2-(3-fluoro-2-methyl-phenyl)-4-oxo-1,3,8-triaza-spiro[4.5]dec-1-ene-8-sulfonyl]-ethyl}-3,N,N-trimethyl-benzamide] | 105% |
| Cc1cc(C(=O)N(C)C)ccc1CCS(=O)(=O)N1CCC2(CC1)N=C(c1cc(F)cc(C(F)(F)F)c1)NC2=O [Compound 115, 4-{2-[2-(3-fluoro-5-trifluoromethyl-phenyl)-4-oxo-1,3,8-triaza-spiro[4.5]dec-1-ene-8-sulfonyl]-ethyl}-3,N,N-trimethyl-benzamide] | 81% |
| Cc1cc(C(=O)N(C)C)ccc1CCS(=O)(=O)N1CCC2(CC1)N=C(c1cccc(C(F)(F)F)c1F)NC2=O [Compound 116, 4-{2-[2-(2-fluoro-3-trifluoromethyl-phenyl)-4-oxo-1,3,8-triaza-spiro[4.5]dec-1-ene-8-sulfonyl]-ethyl}-3,N,N-trimethyl-benzamide] | 94% |
| Cc1cc(C2=NC3(CCN(S(=O)(=O)CCc4ccc(C(=O)N(C)C)cc4C)CC3)C(=O)N2)ccc1F [Compound 117, 4-{2-[2-(4-fluoro-3-methyl-phenyl)-4-oxo-1,3,8-triaza-spiro[4.5]dec-1-ene-8-sulfonyl]-ethyl}-3,N,N-trimethyl-benzamide] | 61% |
| Cc1cc(C(=O)N(C)C)ccc1CCS(=O)(=O)N1CCC2(CC1)N=C(c1ccc(OC(F)F)cc1)NC2=O [Compound 118, 4-{2-[2-(4-difluoromethoxy-phenyl)-4-oxo-1,3,8-triaza-spiro[4.5]dec-1-ene-8-sulfonyl]-ethyl}-3,N,N-trimethyl-benzamide] | 73% |
| COc1cc(C2=NC3(CCN(S(=O)(=O)CCc4ccc(C(=O)N(C)C)cc4C)CC3)C(=O)N2)ccn1 [Compound 119, 4-{2-[2-(2-methoxy-pyridin-4-yl)-4-oxo-1,3,8-triaza-spiro[4.5]dec-1-ene-8-sulfonyl]-ethyl}-3,N,N-trimethyl-benzamide] | 60% |
| Cc1cnc(C2=NC3(CCN(S(=O)(=O)CCc4ccc(C(=O)N(C)C)cc4C)CC3)C(=O)N2)cn1 [Compound 120, 3,N,N-trimethyl-4-{2-[2-(5-methyl-pyrazin-2-yl)-4-oxo-1,3,8-triaza-spiro[4.5]dec-1-ene-8-sulfonyl]-ethyl}-benzamide] | 3.1% |
| Cc1cc(C(=O)N(C)C)ccc1CCS(=O)(=O)N1CCC2(CC1)N=C(c1cscn1)NC2=O [Compound 121, 3,N,N-trimethyl-4-[2-(4-oxo-2-thiazol-4-yl-1,3,8-triaza-spiro[4.5]dec-1-ene-8-sulfonyl)-ethyl]-benzamide] | 5.8% |
| Cc1cc(C(=O)N(C)C)ccc1CCS(=O)(=O)N1CCC2(CC1)N=C(c1nccn1C)NC2=O [Compound 122, 3,N,N-trimethyl-4-{2-[2-(1-methyl-1H-imidazol-2-yl)-4-oxo-1,3,8-triaza-spiro[4.5]dec-1-ene-8-sulfonyl]-ethyl}-benzamide] | 3.0% |
| Cc1cc(C(=O)N(C)C)ccc1CCS(=O)(=O)N1CCC2(CC1)N=C(C1CCOCC1)NC2=O [Compound 123, 3,N,N-trimethyl-4-{2-[4-oxo-2-(tetrahydro-pyran-4-yl)-1,3,8-triaza-spiro[4.5]dec-1-ene-8-sulfonyl]-ethyl}-benzamide] | 23% |
| Cc1cc(C(=O)N(C)C)ccc1CCS(=O)(=O)N1CCC2(CC1)N=C(COc1ccc(Cl)cc1)NC2=O [Compound 124, 4-{2-[2-(4-chloro-phenoxymethyl)-4-oxo-1,3,8-triaza-spiro[4.5]dec-1-ene-8-sulfonyl]-ethyl}-3,N,N-trimethyl-benzamide] | 64% |
| Cc1cc(C(=O)N(C)C)ccc1CCS(=O)(=O)N1CCC2(CC1)N=C(COc1ccc(F)cc1)NC2=O [Compound 125, 4-{2-[2-(4-fluoro-phenoxymethyl)-4-oxo-1,3,8-triaza-spiro[4.5]dec-1-ene-8-sulfonyl]-ethyl}-3,N,N-trimethyl-benzamide] | 62% |
| Cc1cc(C(=O)N(C)C)ccc1CCS(=O)(=O)N1CCC2(CC1)N=C(c1ccc(Cl)c(C(F)(F)F)c1)NC2=O [Compound 126, 4-{2-[2-(4-chloro-3-trifluoromethyl-phenyl)-4-oxo-1,3,8-triaza-spiro[4.5]dec-1-ene-8-sulfonyl]-ethyl}-3,N,N-trimethyl-benzamide] | 79% |
| Cc1cc(C(=O)N(C)C)ccc1CCS(=O)(=O)N1CCC2(CC1)N=C(c1cc(Cl)cc(C(F)(F)F)c1)NC2=O [Compound 127, 4-{2-[2-(3-chloro-5-trifluoromethyl-phenyl)-4-oxo-1,3,8-triaza-spiro[4.5]dec-1-ene-8-sulfonyl]-ethyl}-3,N,N-trimethyl-benzamide] | 72% |
